From patent publication US20050215634A1 (priority 2003, published 2005)
Where two headings read alike, the source gives them in different places.

Columns and labels:
[1] = tested on: HIV-1; type: cell-based
[2] = tested on: HVECs; type: cell-based, human
[3] = tested on: rabbit RBCs; assay: Streptolysin S-induced hemolysis on RBC agar plates; type: cell-based; conditions: rabbit blood agar plates containing GML, surface culture of Group A Streptococci
Experimental: The effect of GML on streptolysin S-induced hemolysis was assayed by direct culturing of Streptococci on the surface of the RBC-containing agar plates.

[4] = tested on: rabbit RBCs; assay: Streptolysin O-induced hemolysis on RBC agar plates; type: cell-based; conditions: GML 10 μg/ml in agar, Group A Streptococci stabbed into agar
Experimental: GML (10 μg/ml) was incorporated into culture plates containing solid agar and rabbit RBCs suspended in the agar. The effect of GML on streptolysin O-induced hemolysis was tested by stabbing the Group A Streptococci into the agar so as to permit the anaerobic growth of the bacteria beneath the surface of the agar and thereby allow streptolysin O to function.

[5] = tested on: human PBMC
[6] = GML 20 μg/ml + SPEA 100 μg/ml, 6 hours
[7] = GML 20 μg/ml + TSST-1 100 μg/ml, 6 hours

CCCCCCCCCCCC(=O)OCC(O)CO (stereo not shown) [GML, glycerol monolaurate]
Cells expressing HIV-1 p24 [1]: rare and no cells expressing p24
IL-8 (pg/ml ± SE) [2]: None Detected
MIP-3α (pg/ml ± SE) [2]: None Detected
IL-8 (pg/ml ± SE) [2, 6]: None Detected
MIP-3α (pg/ml ± SE) [2, 6]: None Detected
IL-8 (pg/ml ± SE) [2, 7]: None Detected
MIP-3α (pg/ml ± SE) [2, 7]: None Detected
Streptolysin S-induced hemolysis [3]: completely inhibited
Streptolysin O-induced hemolysis of RBCs [4]: completely prevented hemolysis
Cell viability [5]: preserved
Total number of cells versus control sample without GML [5]: significantly less

Ovalbumin [reference compound]
IL-8 (pg/ml ± SE) [2]: 36 ± 1.5 pg/mL
MIP-3α (pg/ml ± SE) [2]: 12 ± 1.8 pg/mL
